Experiments:
Test in all cases: two-electrode voltage clamp, Xenopus oocytes
Assay type in all cases: cell-based
α5[wt](α4[wt]β2[wt])2 = biological target: T1, α5[wt](α4[wt]β2[wt])2 (Rattus norvegicus, UniProt P09483+P12390); conditions: read-out: IC50 (μM (-)-menthol) ± SEM
T1 construct: gene Chrna4; Xenopus laevis oocytes; alpha5 in the auxiliary position of alpha4beta2
Description: two-electrode voltage clamp, Xenopus oocytes on α5[wt](α4[wt]β2[wt])2

[1] = biological target: T2, (α4)2(β2)3 nAChR (high sensitivity) (Rattus norvegicus, UniProt P09483+P12390, P09483:L285I); conditions: read-out: IC50 (μM (-)-menthol) ± SEM
T2 construct: gene Chrna4; subunits in pGEMhe, mRNA alpha4:beta2 1:10 injected in Xenopus laevis oocytes; pentamer
T2 sequence (P09483 31-630 L285I): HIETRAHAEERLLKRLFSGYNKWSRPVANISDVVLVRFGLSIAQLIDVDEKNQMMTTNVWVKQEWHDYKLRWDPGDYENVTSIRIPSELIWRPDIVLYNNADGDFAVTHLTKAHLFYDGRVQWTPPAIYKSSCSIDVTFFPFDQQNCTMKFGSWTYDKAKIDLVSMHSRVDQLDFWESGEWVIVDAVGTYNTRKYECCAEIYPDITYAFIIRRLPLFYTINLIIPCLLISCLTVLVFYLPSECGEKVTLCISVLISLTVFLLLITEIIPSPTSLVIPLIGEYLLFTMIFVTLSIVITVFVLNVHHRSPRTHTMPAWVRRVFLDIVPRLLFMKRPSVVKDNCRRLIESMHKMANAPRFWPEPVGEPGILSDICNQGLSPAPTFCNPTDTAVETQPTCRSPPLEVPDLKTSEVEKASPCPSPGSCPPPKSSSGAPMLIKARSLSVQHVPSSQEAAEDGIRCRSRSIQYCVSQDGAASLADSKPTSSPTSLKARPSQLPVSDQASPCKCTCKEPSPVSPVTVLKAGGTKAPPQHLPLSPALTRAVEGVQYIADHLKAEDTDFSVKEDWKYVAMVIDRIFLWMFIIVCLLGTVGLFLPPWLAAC
T2 sequence (P12390 25-500): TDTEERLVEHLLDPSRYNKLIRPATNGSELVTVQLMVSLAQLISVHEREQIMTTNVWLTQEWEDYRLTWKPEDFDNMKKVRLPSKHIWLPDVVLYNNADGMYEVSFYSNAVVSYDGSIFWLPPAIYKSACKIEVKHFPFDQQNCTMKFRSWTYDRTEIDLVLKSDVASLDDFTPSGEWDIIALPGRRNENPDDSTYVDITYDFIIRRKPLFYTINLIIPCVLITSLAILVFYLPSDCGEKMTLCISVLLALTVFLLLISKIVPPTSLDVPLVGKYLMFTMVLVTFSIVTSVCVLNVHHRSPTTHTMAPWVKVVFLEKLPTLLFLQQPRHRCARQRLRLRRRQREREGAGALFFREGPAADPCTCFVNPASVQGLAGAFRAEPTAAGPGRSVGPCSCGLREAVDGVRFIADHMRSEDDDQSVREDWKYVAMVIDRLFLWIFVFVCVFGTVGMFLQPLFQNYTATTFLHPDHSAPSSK
Description: (§1) two-electrode voltage clamp, Xenopus oocytes on (α4)2(β2)3 nAChR (high sensitivity)

[2] = biological target: T3, (α4)2(β2)3 nAChR (high sensitivity) (Rattus norvegicus, UniProt P09483+P12390)
T3 construct: gene Chrna4; subunits in pGEMhe, mRNA alpha4:beta2 1:10 injected in Xenopus laevis oocytes; pentamer
T3 sequence (P09483 31-630): as the sequence (P09483 31-630 L285I) above, with I255L counted along it
T3 sequence (P12390 25-500): as the sequence (P12390 25-500) above
Description: as §1

[3] = biological target: T4, (α4)2(β2)3 nAChR (high sensitivity) (Rattus norvegicus, UniProt P09483+P12390, P09483:L285C); conditions: read-out: IC50 (μM (-)-menthol) ± SEM
T4 construct: gene Chrna4; subunits in pGEMhe, mRNA alpha4:beta2 1:10 injected in Xenopus laevis oocytes; pentamer
T4 sequence (P09483 31-630 L285C): as the sequence (P09483 31-630 L285I) above, with I255C counted along it
T4 sequence (P12390 25-500): as the sequence (P12390 25-500) above
Description: as §1

[4] = biological target: T5, (α4)2(β2)3 nAChR (high sensitivity) (Rattus norvegicus, UniProt P09483+P12390, P09483:L285Q); conditions: read-out: IC50 (μM (-)-menthol) ± SEM
T5 construct: gene Chrna4; subunits in pGEMhe, mRNA alpha4:beta2 1:10 injected in Xenopus laevis oocytes; pentamer
T5 sequence (P09483 31-630 L285Q): as the sequence (P09483 31-630 L285I) above, with I255Q counted along it
T5 sequence (P12390 25-500): as the sequence (P12390 25-500) above
Description: as §1

[5] = biological target: T6, (α4)2(β2)3 nAChR (high sensitivity) (Rattus norvegicus, UniProt P09483+P12390, P09483:L285M); conditions: read-out: IC50 (μM (-)-menthol) ± SEM
T6 construct: gene Chrna4; subunits in pGEMhe, mRNA alpha4:beta2 1:10 injected in Xenopus laevis oocytes; pentamer
T6 sequence (P09483 31-630 L285M): as the sequence (P09483 31-630 L285I) above, with I255M counted along it
T6 sequence (P12390 25-500): as the sequence (P12390 25-500) above
Description: as §1

[6] = biological target: T7, (α4)2(β2)3 nAChR (high sensitivity) (Rattus norvegicus, UniProt P09483+P12390, P09483:L285F); conditions: read-out: IC50 (μM (-)-menthol) ± SEM
T7 construct: gene Chrna4; subunits in pGEMhe, mRNA alpha4:beta2 1:10 injected in Xenopus laevis oocytes; pentamer
T7 sequence (P09483 31-630 L285F): as the sequence (P09483 31-630 L285I) above, with I255F counted along it
T7 sequence (P12390 25-500): as the sequence (P12390 25-500) above
Description: as §1

[7] = biological target: T8, (α4)2(β2)3 nAChR (high sensitivity) (Rattus norvegicus, UniProt P09483+P12390, P09483:L285W); conditions: read-out: IC50 (μM (-)-menthol) ± SEM
T8 construct: gene Chrna4; subunits in pGEMhe, mRNA alpha4:beta2 1:10 injected in Xenopus laevis oocytes; pentamer
T8 sequence (P09483 31-630 L285W): as the sequence (P09483 31-630 L285I) above, with I255W counted along it
T8 sequence (P12390 25-500): as the sequence (P12390 25-500) above
Description: as §1

[8] = biological target: T9, (α4)2(β2)3 nAChR (high sensitivity) (Rattus norvegicus, UniProt P09483+P12390, P09483:L285S); conditions: read-out: IC50 (μM (-)-menthol) ± SEM
T9 construct: gene Chrna4; subunits in pGEMhe, mRNA alpha4:beta2 1:10 injected in Xenopus laevis oocytes; pentamer
T9 sequence (P09483 31-630 L285S): as the sequence (P09483 31-630 L285I) above, with I255S counted along it
T9 sequence (P12390 25-500): as the sequence (P12390 25-500) above
Description: as §1

[9] = biological target: T10, (α4)3(β2)2 nAChR (low sensitivity) (Rattus norvegicus, UniProt P09483+P12390, P09483:S286L); conditions: read-out: IC50 (μM (-)-menthol) ± SEM
T10 construct: gene Chrna4; subunits in pGEMhe, mRNA alpha4:beta2 10:1 injected in Xenopus laevis oocytes; pentamer
T10 sequence (P09483 31-630 S286L): as the sequence (P09483 31-630 L285I) above, with I255L, S256L counted along it
T10 sequence (P12390 25-500): as the sequence (P12390 25-500) above
Description: (§2) two-electrode voltage clamp, Xenopus oocytes on (α4)3(β2)2 nAChR (low sensitivity)

[10] = biological target: T11, (α4)3(β2)2 nAChR (low sensitivity) (Rattus norvegicus, UniProt P09483+P12390, P09483:L285I); conditions: read-out: IC50 (μM (-)-menthol) ± SEM
T11 construct: gene Chrna4; subunits in pGEMhe, mRNA alpha4:beta2 10:1 injected in Xenopus laevis oocytes; pentamer
T11 sequence (P09483 31-630 L285I): as the sequence (P09483 31-630 L285I) above
T11 sequence (P12390 25-500): as the sequence (P12390 25-500) above
Description: as §2

[11] = biological target: T12, (α4)3(β2)2 nAChR (low sensitivity) (Rattus norvegicus, UniProt P09483+P12390, P09483:L285M); conditions: read-out: IC50 (μM (-)-menthol) ± SEM
T12 construct: gene Chrna4; subunits in pGEMhe, mRNA alpha4:beta2 10:1 injected in Xenopus laevis oocytes; pentamer
T12 sequence (P09483 31-630 L285M): as the sequence (P09483 31-630 L285I) above, with I255M counted along it
T12 sequence (P12390 25-500): as the sequence (P12390 25-500) above
Description: as §2

[12] = biological target: T13, (α4)3(β2)2 nAChR (low sensitivity) (Rattus norvegicus, UniProt P09483+P12390)
T13 construct: gene Chrna4; subunits in pGEMhe, mRNA alpha4:beta2 10:1 injected in Xenopus laevis oocytes; pentamer
T13 sequence (P09483 31-630): as the sequence (P09483 31-630 L285I) above, with I255L counted along it
T13 sequence (P12390 25-500): as the sequence (P12390 25-500) above
Description: as §2

T1 sequence (P09483 31-630): as the sequence (P09483 31-630 L285I) above, with I255L counted along it
T1 sequence (P12390 25-500): as the sequence (P12390 25-500) above
T1 sequence (P20420 28-452 partner): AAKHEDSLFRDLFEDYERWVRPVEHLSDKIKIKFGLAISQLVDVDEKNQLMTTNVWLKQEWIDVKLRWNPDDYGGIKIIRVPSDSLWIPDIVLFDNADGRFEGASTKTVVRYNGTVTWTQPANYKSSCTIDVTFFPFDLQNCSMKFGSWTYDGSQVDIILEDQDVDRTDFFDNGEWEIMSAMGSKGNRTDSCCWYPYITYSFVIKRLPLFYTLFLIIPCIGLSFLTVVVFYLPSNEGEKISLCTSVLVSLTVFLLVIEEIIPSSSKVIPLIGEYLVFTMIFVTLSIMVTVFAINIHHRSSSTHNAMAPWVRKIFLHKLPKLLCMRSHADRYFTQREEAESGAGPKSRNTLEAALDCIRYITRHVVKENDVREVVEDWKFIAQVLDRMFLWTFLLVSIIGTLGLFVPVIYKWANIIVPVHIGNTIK

Compound	IC50 (α5[wt](α4[wt]β2[wt])2) [µM]	IC50 [1] [µM]	IC50 [2] [µM]	IC50 [3] [µM]	IC50 [4] [µM]	IC50 [5] [µM]	IC50 [6] [µM]	IC50 [7] [µM]	IC50 [8] [µM]	IC50 [9] [µM]	IC50 [10] [µM]	IC50 [11] [µM]	IC50 [12] [µM]
CC(C)[C@@H]1CC[C@@H](C)C[C@H]1O [(−)-menthol]	51 ± 9.06	97.3 ± 38.5	44.9 ± 1.62	306 ± 173	165 ± 28.1	26.6 ± 1.9	211 ± 75.6	28.8 ± 3.26	514 ± 361	29.4 ± 4.32	127 ± 29.1	39.2 ± 7.98	33.1 ± 1.83
CC(C)[C@H]1CC[C@H](C)C[C@@H]1O [(+)-menthol]	–	–	48.3 ± 1.67	–	–	–	–	–	–	–	–	–	45.5 ± 2.03

From paper PMC6325563 (eNeuro, 2019)
